From ChEMBL document CHEMBL1145675, “Antibacterial activity studies of flavonoids from Salvia palaestina” (1983)
Converted amounts (≈) assume the structure as drawn.

What was measured:
Assay type in all cases: functional
Staphylococcus aureus [1] = assay: Antimicrobial activity against Staphylococcus aureus ATCC 6538 by tube dilution method
Proteus vulgaris [2] = assay: Antimicrobial activity against Proteus vulgaris ATCC 8427 by tube dilution method
[3] = system: Staphylococcus epidermidis; assay: Antimicrobial activity against Staphylococcus epidermidis ATCC 12228 by tube dilution method
Escherichia coli [4] = assay: Antimicrobial activity against Escherichia coli ATCC 8739 by tube dilution method
Klebsiella pneumoniae [5] = assay: Antimicrobial activity against Klebsiella pneumoniae UC57 by tube dilution method
Pseudomonas aeruginosa [6] = assay: Antimicrobial activity against Pseudomonas aeruginosa ATCC 1539 by tube dilution method
Staphylococcus aureus [7] = assay: Antimicrobial activity against Staphylococcus aureus ATCC 6538 by disc-diffusion method
Escherichia coli [8] = assay: Antimicrobial activity against Escherichia coli ATCC 8739 by disc-diffusion method
Proteus vulgaris [9] = assay: Antimicrobial activity against Proteus vulgaris ATCC 8427 by disc-diffusion method
Klebsiella pneumoniae [10] = assay: Antimicrobial activity against Klebsiella pneumoniae UC57 by disc-diffusion method
[11] = system: Staphylococcus epidermidis; assay: Antimicrobial activity against Staphylococcus epidermidis ATCC 12228 by disc-diffusion method
Pseudomonas aeruginosa [12] = assay: Antimicrobial activity against Pseudomonas aeruginosa ATCC 1539 by disc-diffusion method

| MIC (Staphylococcus aureus [1]) | MIC (Proteus vulgaris [2]) | MIC [3] | MIC (Escherichia coli [4]) | MIC (Pseudomonas aeruginosa [6]) | Compound | MBC (Staphylococcus aureus [1]) | MBC (Proteus vulgaris [2]) | MBC [3] | MBC (Escherichia coli [4]) | MBC (Klebsiella pneumoniae [5]) | MIC (Klebsiella pneumoniae [5]) | MBC (Pseudomonas aeruginosa [6]) | inhibition zone (IZ) (Staphylococcus aureus [7]) | inhibition zone (IZ) (Escherichia coli [8]) | inhibition zone (IZ) (Proteus vulgaris [9]) | inhibition zone (IZ) (Klebsiella pneumoniae [10]) | inhibition zone (IZ) [11] | inhibition zone (IZ) (Pseudomonas aeruginosa [12]) |
| --- | --- | --- | --- | --- | --- | --- | --- | --- | --- | --- | --- | --- | --- | --- | --- | --- | --- | --- |
| 31.2 µg/mL (≈ 99.4 µM) | 31.2 µg/mL (≈ 99.4 µM) | 62.5 µg/mL (≈ 199 µM) | 45 µg/mL (≈ 143 µM) | 31.2 µg/mL (≈ 99.4 µM) | COc1cc2oc(-c3ccc(O)cc3)cc(=O)c2c(O)c1OC [CIRSIMARITIN] | 125 µg/mL (≈ 398 µM) | 125 µg/mL (≈ 398 µM) | 125 µg/mL (≈ 398 µM) | 90 µg/mL (≈ 286 µM) | 90 µg/mL (≈ 286 µM) | 45 µg/mL (≈ 143 µM) | 125 µg/mL (≈ 398 µM) | – | – | – | – | – | – |
| – | – | – | – | 125 µg/mL (≈ 365 µM) | COc1ccc(-c2cc(=O)c3cc(OC)c(OC)cc3o2)cc1OC | – | – | – | – | – | – | 250 µg/mL (≈ 730 µM) | <7 mm | <7 mm | <7 mm | <7 mm | <7 mm | – |
| – | – | – | 250 µg/mL (≈ 558 µM) | – | O=c1cc(-c2ccc(O)c(O)c2)oc2cc(O[C@@H]3O[C@H](CO)[C@@H](O)[C@H](O)[C@H]3O)cc(O)c12 [GALUTEOLIN] | – | – | – | 500 µg/mL (≈ 1120 µM) | – | – | – | <7 mm | – | <7 mm | <7 mm | <7 mm | <7 mm |

| Compound | MIC (Staphylococcus aureus [1]) | MIC (Proteus vulgaris [2]) | MIC [3] | MIC (Escherichia coli [4]) | MIC (Pseudomonas aeruginosa [6]) | MBC (Staphylococcus aureus [1]) | MBC (Proteus vulgaris [2]) | MBC [3] | MBC (Escherichia coli [4]) | MBC (Klebsiella pneumoniae [5]) | MIC (Klebsiella pneumoniae [5]) | MBC (Pseudomonas aeruginosa [6]) | inhibition zone (IZ) (Staphylococcus aureus [7]) | inhibition zone (IZ) (Escherichia coli [8]) | inhibition zone (IZ) (Proteus vulgaris [9]) | inhibition zone (IZ) (Klebsiella pneumoniae [10]) | inhibition zone (IZ) [11] | inhibition zone (IZ) (Pseudomonas aeruginosa [12]) |
| --- | --- | --- | --- | --- | --- | --- | --- | --- | --- | --- | --- | --- | --- | --- | --- | --- | --- | --- |
| O=c1cc(-c2ccc(O)c(O)c2)oc2cc(O)cc(O)c12 [LUTEOLIN] | – | – | – | 125 µg/mL (≈ 437 µM) | 125 µg/mL (≈ 437 µM) | – | – | – | 500 µg/mL (≈ 1750 µM) | 500 µg/mL (≈ 1750 µM) | 125 µg/mL (≈ 437 µM) | 500 µg/mL (≈ 1750 µM) | <7 mm | – | <7 mm | – | <7 mm | – |
